{
  "source": "patent US10280166B2",
  "about": "“2-(1H-indazol-3-yl)-3H-imidazo[4,5-B]pyridine and therapeutic uses thereof” (Samumed, LLC, priority 2014, dated 2019)",
  "data": [
    {"test_system": "Wnt activity (SW480 colon carcinoma cells stably expressing the Sp5-Luc reporter gene)", "test": "Sp5-Luc reporter gene screening assay for Wnt activity in SW480 cells", "type": "cell-based", "details": "Homo sapiens, 42 h incubation, luminescence", "excerpt": "The screening assay for Wnt activity is described as follows. Reporter cell lines can be generated by stably transducing cancer cell lines (e.g., colon cancer) or primary cells (e.g., IEC-6 intestinal cells) with a lentiviral construct that includes a Wnt-responsive promoter driving expression of the firefly luciferase gene.\nSW480 colon carcinoma cells were transduced with a lentiviral vector expressing luciferase with a human Sp5 promoter consisting of a sequence of eight TCF/LEF binding sites. SW480 cells stably expressing the Sp5-Luc reporter gene and a hygromycin resistance gene were selected by treatment with 150 μg/ml of hygromycin for 7 days. These stably transduced SW480 cells were expanded in cell culture and used for all further screening activities. For Sp5-Luc reporter gene assays, the cells were plated at 10,000 cells/well in 96-well plates with growth medium containing 10% fetal calf serum and incubated overnight at 37° C. and 5% CO2. Each compound was dissolved in DMSO as a 10 mM stock in standard j-vials and used to prepare compound source plates in dose-response format with 3-fold serial dilutions and a 10 mM top concentration. Compound transfer from serially diluted source plates to assay plates containing the cells was accomplished using a pintool (Multimek 96, Beckman equipped with V&P Scientific FP1S50H pins) based liquid handling protocol. This protocol used a slotted pin to transfer 50 nl of compound from a source plate well to an assay plate well containing 50 μl of cells in growth medium. […] Control wells received 50 nl of DMSO treatment for normalization and calculating IC50 values. The treated cells were incubated at 37° C. and 5% CO2 for an additional forty-two hours. Following incubation, the growth medium was removed and 50 μl of BrightGlo luminescence reagent (Promega) was added to each well of the 96-well assay plates. The plates were placed on an orbital shaker for 5 min and then luminescence was quantified on the Victor3 (Perkin Elmer) plate reader. Readings were normalized to DMSO only treated cells, and normalized activities were utilized for IC50 calculations using the dose-response log (inhibitor) vs. response—variable slope (four parameters) nonlinear regression feature available in GraphPad Prism 5.0 or 6.0.", "units": {"IC50": "nM"}, "values": [
      {"smiles": "CC(C)C(=O)Nc1cncc(-c2ccc3[nH]nc(-c4nc5c(-c6cccnc6)ccnc5[nH]4)c3c2)c1", "note": "[Compound 87, N-(5-(3-(7-(Pyridin-3-yl)-3H-imidazo[4,5-b]pyridin-2-yl)-1H-indazol-5-yl)pyridin-3-yl)isobutyramide]", "IC50": 6.8},
      {"smiles": "CN(C)Cc1cncc(-c2cc(F)c3[nH]nc(-c4nc5c(-c6cc(F)cc(CNS(C)(=O)=O)c6)ccnc5[nH]4)c3c2)c1", "note": "[Compound 897, N-(3-(2-(5-(5-((Dimethylamino)methyl)pyridin-3-yl)-7-fluoro-1H-indazol-3-yl)-3H-imidazo[4,5-b]pyridin-7-yl)-5-fluorobenzyl)methanesulfonamide]", "IC50": 74},
      {"smiles": "CC(C)C(=O)Nc1cncc(-c2ccc3[nH]nc(-c4nc5c(-c6cccs6)ccnc5[nH]4)c3c2)c1", "note": "[Compound 321, N-(5-(3-(7-(Thiophen-2-yl)-3H-imidazo[4,5-b]pyridin-2-yl)-1H-indazol-5-yl)pyridin-3-yl)isobutyramide]", "IC50": 41.1},
      {"smiles": "CC(C)(C)CC(=O)Nc1cncc(-c2ccc3[nH]nc(-c4nc5c(-c6ccccc6F)ccnc5[nH]4)c3c2)c1", "note": "[Compound 68, N-(5-(3-(7-(2-Fluorophenyl)-3H-imidazo[4,5-b]pyridin-2-yl)-1H-indazol-5-yl)pyridin-3-yl)-3,3-dimethylbutanamide]", "IC50": 52},
      {"smiles": "Fc1cccc(-c2ccnc3[nH]c(-c4n[nH]c5ccc(-c6cncc(OCCN7CCCC7)c6)cc45)nc23)c1", "note": "[Compound 1882, 7-(3-Fluorophenyl)-2-(5-(5-(2-(pyrrolidin-1-yl)ethoxy)pyridin-3-yl)-1H-indazol-3-yl)-3H-imidazo[4,5-b]pyridine]", "IC50": 4140},
      {"smiles": "CC(C)CC(=O)Nc1cncc(-c2ccc3[nH]nc(-c4nc5c(-c6ccc(F)s6)ccnc5[nH]4)c3c2)c1", "note": "[Compound 340, N-(5-(3-(7-(5-Fluorothiophen-2-yl)-3H-imidazo[4,5-b]pyridin-2-yl)-1H-indazol-5-yl)pyridin-3-yl)-3-methylbutanamide]", "IC50": 4.9},
      {"smiles": "O=C(Nc1cncc(-c2ccc3[nH]nc(-c4nc5c(-c6ccc(F)s6)ccnc5[nH]4)c3c2)c1)C1CCC1", "note": "[Compound 358, N-(5-(3-(7-(5-Fluorothiophen-2-yl)-3H-imidazo[4,5-b]pyridin-2-yl)-1H-indazol-5-yl)pyridin-3-yl)cyclobutanecarboxamide]", "IC50": 6.9},
      {"smiles": "CN(C)Cc1cncc(-c2cc(F)c3[nH]nc(-c4nc5c(-c6ccsc6)ccnc5[nH]4)c3c2)c1", "note": "[Compound 741, 1-(5-(7-Fluoro-3-(7-(thiophen-3-yl)-3H-imidazo[4,5-b]pyridin-2-yl)-1H-indazol-5-yl)pyridin-3-yl)-N,N-dimethylmethanamine]", "IC50": 936},
      {"smiles": "O=C(Cc1ccccc1)Nc1cncc(-c2ccc3[nH]nc(-c4nc5cccnc5[nH]4)c3c2)c1", "note": "[Compound 244, N-(5-(3-(3H-Imidazo[4,5-b]pyridin-2-yl)-1H-indazol-5-yl)pyridin-3-yl)-2-phenylacetamide]", "IC50": 352},
      {"smiles": "CC(C)(C)C(=O)Nc1cncc(-c2ccc3[nH]nc(-c4nc5c(-c6ccsc6)ccnc5[nH]4)c3c2)c1", "note": "[Compound 268, N-(5-(3-(7-(Thiophen-3-yl)-3H-imidazo[4,5-b]pyridin-2-yl)-1H-indazol-5-yl)pyridin-3-yl)pivalamide]", "IC50": 6.5},
      {"smiles": "CCCC(=O)Nc1cncc(-c2ccc3[nH]nc(-c4nc5c(-c6ccncc6)ccnc5[nH]4)c3c2)c1", "note": "[Compound 121, N-(5-(3-(7-(Pyridin-4-yl)-3H-imidazo[4,5-b]pyridin-2-yl)-1H-indazol-5-yl)pyridin-3-yl)butyramide]", "IC50": 35},
      {"smiles": "CS(=O)(=O)NCc1cc(F)cc(-c2ccnc3[nH]c(-c4n[nH]c5ccc(-c6cncnc6)cc45)nc23)c1", "note": "[Compound 442, N-(3-Fluoro-5-(2-(5-(pyrimidin-5-yl)-1H-indazol-3-yl)-3H-imidazo[4,5-b]pyridin-7-yl)benzyl)methanesulfonamide]", "IC50": 5.8},
      {"smiles": "COc1cc(F)cc(-c2ccnc3[nH]c(-c4n[nH]c5ccc(-c6cncc(NC(=O)CC(C)C)c6)cc45)nc23)c1", "note": "[Compound 2330, N-(5-(3-(7-(3-Fluoro-5-methoxyphenyl)-3H-imidazo[4,5-b]pyridin-2-yl)-1H-indazol-5-yl)pyridin-3-yl)-3-methylbutanamide]", "IC50": 20},
      {"smiles": "O=C(Cc1ccccc1)Nc1cncc(-c2ccc3[nH]nc(-c4nc5c(-c6ccncc6)ccnc5[nH]4)c3c2)c1", "note": "[Compound 114, 2-Phenyl-N-(5-(3-(7-(pyridin-4-yl)-3H-imidazo[4,5-b]pyridin-2-yl)-1H-indazol-5-yl)pyridin-3-yl)acetamide]", "IC50": 54},
      {"smiles": "CN1CCN(c2ccnc3[nH]c(-c4n[nH]c5ccc(-c6cncc(N)c6)cc45)nc23)CC1", "note": "[Compound 211, 5-(3-(7-(4-Methylpiperazin-1-yl)-3H-imidazo[4,5-b]pyridin-2-yl)-1H-indazol-5-yl)pyridin-3-amine]", "IC50": 66.3},
      {"smiles": "CN(C)Cc1cncc(-c2cc3c(-c4nc5c(-c6cccc(F)c6)ccnc5[nH]4)n[nH]c3cc2F)c1", "note": "[Compound 949, 1-(5-(6-Fluoro-3-(7-(3-fluorophenyl)-3H-imidazo[4,5-b]pyridin-2-yl)-1H-indazol-5-yl)pyridin-3-yl)-N,N-dimethylmethanamine]", "IC50": "> 10000"},
      {"smiles": "CN(C)Cc1cncc(-c2ccc3[nH]nc(-c4nc5c(-c6ccsc6)ccnc5[nH]4)c3c2F)c1", "note": "[Compound 1677, 1-(5-(4-Fluoro-3-(7-(thiophen-3-yl)-3H-imidazo[4,5-b]pyridin-2-yl)-1H-indazol-5-yl)pyridin-3-yl)-N,N-dimethylmethanamine]", "IC50": 673},
      {"smiles": "CC(C)CC(=O)Nc1cncc(-c2ccc3[nH]nc(-c4nc5c(-c6cc(O)cc(F)c6)ccnc5[nH]4)c3c2)c1", "note": "[Compound 2286, N-(5-(3-(7-(3-Fluoro-5-hydroxyphenyl)-3H-imidazo[4,5-b]pyridin-2-yl)-1H-indazol-5-yl)pyridin-3-yl)-3-methylbutanamide]", "IC50": 55},
      {"smiles": "CN(C)Cc1cncc(-c2cc(F)c3[nH]nc(-c4nc5c(-c6cccc(F)c6)ccnc5[nH]4)c3c2)c1", "note": "[Compound 481, 1-(5-(7-fluoro-3-(7-(3-fluorophenyl)-3H-imidazo[4,5-b]pyridin-2-yl)-1H-indazol-5-yl)pyridin-3-yl)-N,N-dimethylmethanamine]", "IC50": 155},
      {"smiles": "CN(C)Cc1cncc(-c2ccc3[nH]nc(-c4nc5c(-c6cccc(F)c6)ccnc5[nH]4)c3c2F)c1", "note": "[Compound 1417, 1-(5-(4-Fluoro-3-(7-(3-fluorophenyl)-3H-imidazo[4,5-b]pyridin-2-yl)-1H-indazol-5-yl)pyridin-3-yl)-N,N-dimethylmethanamine]", "IC50": 923},
      {"smiles": "CN(C)Cc1cncc(-c2cc3c(-c4nc5c(-c6cc(F)cc(CNS(C)(=O)=O)c6)ccnc5[nH]4)n[nH]c3cc2F)c1", "note": "[Compound 1365, N-(3-(2-(5-(5-((Dimethylamino)methyl)pyridin-3-yl)-6-fluoro-1H-indazol-3-yl)-3H-imidazo[4,5-b]pyridin-7-yl)-5-fluorobenzyl)methanesulfonamide]", "IC50": 804},
      {"smiles": "CN(C)c1cncc(-c2ccc3[nH]nc(-c4nc5c(-c6cccs6)ccnc5[nH]4)c3c2)c1", "note": "[Compound 319, N,N-Dimethyl-5-(3-(7-(thiophen-2-yl)-3H-imidazo[4,5-b]pyridin-2-yl)-1H-indazol-5-yl)pyridin-3-amine]", "IC50": 62.8},
      {"smiles": "CS(=O)(=O)NCc1cc(F)cc(-c2ccnc3[nH]c(-c4n[nH]c5ccc(-c6cncc(NC(=O)c7ccccc7)c6)cc45)nc23)c1", "note": "[Compound 427, N-(5-(3-(7-(3-Fluoro-5-(methylsulfonamidomethyl)phenyl)-3H-imidazo[4,5-b]pyridin-2-yl)-1H-indazol-5-yl)pyridin-3-yl)benzamide]", "IC50": 19.2},
      {"smiles": "O=C(Nc1cncc(-c2ccc3[nH]nc(-c4nc5c(-c6ccncc6)ccnc5[nH]4)c3c2)c1)C1CCCCC1", "note": "[Compound 126, N-(5-(3-(7-(Pyridin-4-yl)-3H-imidazo[4,5-b]pyridin-2-yl)-1H-indazol-5-yl)pyridin-3-yl)cyclohexanecarboxamide]", "IC50": 30.7},
      {"smiles": "CC(C)CC(=O)Nc1cncc(-c2ccc3[nH]nc(-c4nc5c(-c6ccc(F)cc6)ccnc5[nH]4)c3c2)c1", "note": "[Compound 28, N-(5-(3-(7-(4-Fluorophenyl)-3H-imidazo[4,5-b]pyridin-2-yl)-1H-indazol-5-yl)pyridin-3-yl)-3-methylbutanamide]", "IC50": 4},
      {"smiles": "CC(C)CC(=O)Nc1cncc(-c2ccc3[nH]nc(-c4nc5c(-c6cc(F)cc(OCCN7CCCC7)c6)ccnc5[nH]4)c3c2)c1", "note": "[Compound 2242, N-(5-(3-(7-(3-Fluoro-5-(2-(pyrrolidin-1-yl)ethoxy)phenyl)-3H-imidazo[4,5-b]pyridin-2-yl)-1H-indazol-5-yl)pyridin-3-yl)-3-methylbutanamide]", "IC50": 440},
      {"smiles": "Fc1cccc(-c2ccnc3[nH]c(-c4n[nH]c5ccc(-c6cncc(OCc7ccccc7)c6)cc45)nc23)c1", "note": "[Compound 1886, 2-(5-(5-(Benzyloxy)pyridin-3-yl)-1H-indazol-3-yl)-7-(3-fluorophenyl)-3H-imidazo[4,5-b]pyridine]", "IC50": "> 10000"}
    ]}
  ]
}
